These results are taken from paper PMC3873602, “Atheroprotective Vaccination with MHC-II Restricted Peptides from ApoB-100” (Frontiers in Immunology, 2013).

“Also recorded” adds a separate entry of the source. Where two headings read alike, the source gives them in different places. Ends that are not written are not given here.

As a reminder, the IC50 is the concentration that gives 50% inhibition.

The target in assay [1] is T1, H-2 I-A^b (Mus musculus, UniProt P14434+P14483).
T1 sequence (P14434 24-256): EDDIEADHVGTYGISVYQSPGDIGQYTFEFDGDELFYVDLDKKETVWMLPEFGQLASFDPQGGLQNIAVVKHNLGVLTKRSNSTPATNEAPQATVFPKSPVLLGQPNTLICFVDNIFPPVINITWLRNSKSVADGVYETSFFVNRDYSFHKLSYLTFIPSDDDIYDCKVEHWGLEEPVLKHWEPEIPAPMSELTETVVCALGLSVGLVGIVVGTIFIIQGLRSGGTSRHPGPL
T1 sequence (P14483 28-265): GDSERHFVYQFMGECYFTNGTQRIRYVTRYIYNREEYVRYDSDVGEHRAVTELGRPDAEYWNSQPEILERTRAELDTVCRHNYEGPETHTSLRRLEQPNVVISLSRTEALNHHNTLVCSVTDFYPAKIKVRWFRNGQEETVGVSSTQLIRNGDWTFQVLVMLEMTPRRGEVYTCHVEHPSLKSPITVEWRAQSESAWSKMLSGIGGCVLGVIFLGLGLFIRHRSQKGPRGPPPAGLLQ
Put plainly: I-A^b binding affinity, competitive inhibition assay with purified MHC and radio-labeled ligand. The procedure:
We measured I-A^b binding affinity using a classical competitive inhibition assay utilizing purified MHC and high affinity radio-labeled I-A^b ligands ([39]). Their ability to displace the radio-labeled I-A^b ligand was measured, and an inhibitory concentration required to displace 50% of the radio-labeled ligand (IC50) was determined.
A peptide can only be recognized by a CD4^+ helper T-cell if it is bound to MHC class II. Because Apoe^−/− mice are on a C57B/6 background, candidate epitopes must be able to bind to the Class II allele, I-A^b. Previously, it has been shown that I-A^b binding motifs can be predicted using algorithms based on the number of anchor residues and hydrophobicity ([36]–[38]). […] The binding affinity is reflected by the amount of peptide, in […], needed to inhibit binding of a standardized radio-labeled peptide by 50% (the IC50) ([39]).

Assay [2] deals with T1, H-2 I-A^b. As to conditions: known T-cell epitope for comparison; cited from earlier work. The source says: Because Apoe^−/− mice are on a C57B/6 background, candidate epitopes must be able to bind to the Class II allele, I-A^b. Previously, it has been shown that I-A^b binding motifs can be predicted using algorithms based on the number of anchor residues and hydrophobicity ([36]–[38]).

A further assay concerns mice. Particulars: human ApoB-100 B-cell epitope; cited from earlier work. From the text:
Several studies have reported a protective effect of vaccination with LDL, or ox-LDL, on the development of atherosclerotic plaque ([23]–[25]). However, the mechanism by which these immunizations convey atheroprotection is an ongoing area of research. […] This was initially a promising hypothesis which subsequently led to the search for atheroprotective B-cell (antibody) epitopes. The discovery of such epitopes was first reported by ...

The next assay has as its target I-Ab (Mus musculus, UniProt P14434+P14483). As to conditions: MHC Class II allele of Apoe^−/− and LDL-R^−/− mice; cited from earlier work. The source says:
More recently, researchers have sought to describe the changes in cellular (rather than humoral) immunity that may result from immunization with B-cell epitopes from ApoB-100. Several recent papers have reported an increase in FoxP3^+ expressing TREGS in secondary lymphoid organs [spleens ([32]) and lymph nodes ([33])] after immunization of mice with P210. […] It is not known whether these TREGS are causally related to the atheroprotection that is observed.

In assay [3] the test system is Apoe^−/− mice. Put plainly: Aortic root plaque quantification (Oil Red O) after 1× CFA + 4× IFA immunization. Particulars: female Apoe^−/− mice, 1× CFA + 4× IFA scheme, WD 13 weeks; vs adjuvant-only mice; N = 5. It is filed as in vivo, mouse. The source says:
Eight-week-old female Apoe^−/− mice on C57BL/6 background were purchased from Jackson Laboratories (Bar Harbor, ME, USA). Mice were housed in a specific pathogen free environment and fed chow diet until 10 weeks of age. At 10 weeks of age, mice were started on WD (adjusted calories diet with 42% from fat, Harlan Labs Cat #: TD.88137, CA, USA) and remained on WD until sacrifice at 23 weeks old.
Aortic root sections were examined as follows. Hearts were harvested, placed in Optimal Cutting Temperature medium (OCT, Electron Microscopy Sciences, Hatfield, PA, USA), and frozen at −80°C. Beginning at the first appearance of the tri-leaflet aortic valve, successive 5 μm transverse sections were made for a distance of 100 μm. From these, we analyzed every other section, for a total of 10 sections per root. Sections were then stained with Oil Red O and counter-stained with hematoxylin. Extent of atherosclerosis was then determined as the area involved on each section. To measure en face lesion formation, the whole aorta was carefully cleaned in situ and then the whole aorta pinned out after paraformaldehyde incubation at RT for at least 2 h. Staining for atherosclerotic plaque was performed by incubating samples in Sudan IV. Quantification was performed using ImagePro software (Media Cybernetics, Rockville, MD, USA). […]

Assay [4] has as its system Apoe^−/− mice. Put plainly: Antibody titers in plasma by chemiluminescent enzyme immunoassay. It is filed as in vivo, mouse. As to conditions: pooled plasma, chemiluminescent ELISA, 1:250 dilution. The procedure:
Antibody titers in plasma were determined by chemiluminescent enzyme immunoassay as previously described ([41]). In brief, white “U” bottom plates (Thermo Lab systems, USA) were coated with various antigens at 5 μg/mL in PBS for overnight incubation. Following blocking with 1% BSA-TBS serum was added in increasing dilutions and incubated at RT for 90 min. Bound antibodies levels were detected using appropriate alkaline phosphatase-conjugated secondary antibodies and a 50% aqueous solution of LumiPhos 530 (Lumigen, USA). Data are expressed as relative light units counted per 100 ms (RLU/100 ms).
In general terms: In an ELISA, binding on a coated surface is turned into a signal by an enzyme label.

The target of another assay is H-2 I-A^b (mouse). Put plainly: radioligand binding; competitive inhibition assay: peptides displace a high affinity radio-labeled I-A^b ligand from purified MHC; (label) < (MHC) and IC50 ≥ (MHC), so that IC50 values approximate the true Kd.
[5] abbreviates: Table 2, ApoB3501–3516- and ApoB978–993-related overlapping peptides, read-out: H-2 I-Ab (IC50 nM).
The mark [6] stands for this setting: Table 1, displacement of 50% of radio-labeled I-A^b ligand, purified MHC, IC50 approximates Kd.

Regarding `CC(C)C[C@H](NC(=O)[C@H](Cc1ccc(O)cc1)NC(=O)[C@@H](NC(=O)[C@H](CC(N)=O)NC(=O)[C@H](C)NC(=O)[C@H](CCC(=O)O)NC(=O)[C@H](CC(N)=O)NC(=O)[C@H](C)NC(=O)[C@@H](NC(=O)[C@H](CO)NC(=O)CNC(=O)[C@@H](N)CO)C(C)C)C(C)C)C(=O)N[C@@H](CC(N)=O)C(=O)N[C@@H](CO)C(=O)N[C@@H](CCCCN)C(=O)NCC(=O)O`, at H-2 I-A^b [1] (setting [5]), the 50% inhibitory concentration (IC50) came out at 172 nM.

Regarding `CC(C)C[C@H](NC(=O)[C@H](C)NC(=O)[C@H](Cc1ccc(O)cc1)NC(=O)[C@H](CC(C)C)NC(=O)[C@@H](NC(=O)[C@H](C)NC(=O)[C@H](CCCNC(=N)N)NC(=O)[C@@H](N)CO)[C@@H](C)O)C(=O)N[C@@H](CO)C(=O)N[C@@H](Cc1c[nH]cn1)C(=O)N[C@@H](C)C(=O)N[C@H](C(=O)N[C@@H](CC(N)=O)C(=O)N[C@@H](CO)C(=O)N[C@@H](Cc1ccc(O)cc1)C(=O)O)C(C)C`, at H-2 I-A^b [1] (setting [6]), the IC50 amounted to 1370 nM.

For the molecule `CC(C)C[C@H](NC(=O)[C@H](Cc1ccccc1)NC(=O)[C@H](CO)NC(=O)[C@@H](N)CO)C(=O)N[C@@H](CO)C(=O)N[C@@H](CCC(N)=O)C(=O)N[C@@H](CCC(=O)O)C(=O)N[C@@H](Cc1ccc(O)cc1)C(=O)N[C@@H](CO)C(=O)NCC(=O)N[C@@H](CO)C(=O)N[C@H](C(=O)N[C@@H](C)C(=O)N[C@@H](CC(N)=O)C(=O)N[C@@H](CCC(=O)O)C(=O)N[C@@H](C)C(=O)O)C(C)C`, the IC50 at H-2 I-A^b [1] (setting [5]) was determined as 6.8 nM.

Consider `C[C@H](NC(=O)CNC(=O)[C@@H](NC(=O)[C@@H](N)[C@@H](C)O)[C@@H](C)O)C(=O)N[C@@H](Cc1ccc(O)cc1)C(=O)N[C@@H](CO)C(=O)N[C@@H](CC(N)=O)C(=O)N[C@@H](C)C(=O)N[C@@H](CO)C(=O)N[C@@H](CO)C(=O)N[C@H](C(=O)N[C@@H](CCC(=O)O)C(=O)N[C@@H](CO)C(=O)N[C@@H](C)C(=O)N[C@@H](CO)C(=O)N[C@@H](Cc1ccc(O)cc1)C(=O)O)[C@@H](C)O`, for which the IC50 at H-2 I-A^b [1] (setting [5]) stood at 17 nM.

As for GWYRSPFSRVVHLY [MOG38–51], the IC50 with H-2 I-A^b [2] was 354 nM.

HLEYVSSELRKSLQV yielded an IC50 at H-2 I-A^b [1] (setting [6]) of 22200 nM.

On to IALDDAKINFNEKLSQLQTY [Peptide P143], for which, in the assay on mice, the “atheroprotection after vaccination of mice” value (shortened to “atheroprotection”) is 40–60%.

Turning to KTTKQSFDLSVKAQYKKNKH [Peptide P210], the “atheroprotection” value in the assay with mice is 40–60%. Also, the “binding to I-Ab” value on I-Ab is “does not bind; also recorded: not to bind to I-Ab”.

For the molecule “MEVGWYRSPFSRVVHLYRNGK [MOG35–55, irrelevant control peptide, myelin oligodendrocyte glycoprotein 35–55]”, the “reduction in aortic sinus (aortic root) plaque development, ORO staining” value in the assay with Apoe^−/− mice [3] is listed as “no significant decrease”. Further, the “antibody titers to ApoB3501–3516 or ApoB978–993 in mice immunized with irrelevant peptide” value with Apoe^−/− mice [4] is given as “no antibody titers”. Moreover, in the assay on Apoe^−/− mice [4] (vs 1× CFA + 4× IFA group), the “IgG (IgG1, IgG2c) response to the immunizing peptide” value is “predominantly IgG2c response”.

At H-2 I-A^b [1] (setting [6]), NNYALFLSPRAQQAS showed an IC50 of 1300 nM.

As for NVYLNSKGTRSSVRLQ, on H-2 I-A^b [1] (setting [5]), the IC50 is 907 nM.

With SFTKGNIKSSFLSQEY, at H-2 I-A^b [1] (setting [5]), the IC50 stood at 1170 nM.

SSTESASYYPLTGDTR: on H-2 I-A^b [1] (setting [5]), the IC50 worked out at 1260 nM.

For TRFKHLRKYTYNYEAESSS [Peptide P2], in the assay on mice, the “atheroprotection” value is given as 40–60%.

As for YENFAASNKLDVTFS, at H-2 I-A^b [1] (setting [6]), the “H-2 I-A^b (IC50 nM)” value is “∞”.

B1: mouse ApoB-100 peptide 4054–4069 (peptide)
peptide: HLEYVSSELRKSLQV
B1: the IC50 with H-2 I-A^b (mouse) came to 22200 nM.

B2: ApoB_(3501–3516)-related peptide, position 3513, 16 residues (peptide)
peptide: NVYLNSKGTRSSVRLQ
Take B2: the IC50 in the assay with H-2 I-A^b (mouse) was 907 nM.

B3: mouse ApoB-100 peptide 438–453 (peptide)
peptide: SRATLYALSHAVNSY
In the assay with H-2 I-A^b (mouse), B3 gave a concentration for half-maximal inhibition (IC50) of 1370 nM.

B4: ApoB_(978–993)-related peptide, position 985, 16 residues (peptide)
peptide: SSTESASYYPLTGDTR
On to B4, for which the IC50 with H-2 I-A^b (mouse) turned out to be 1260 nM.

B5: ApoB_(3501–3516)-related peptide, position 3505, 16 residues (peptide)
peptide: SGSVANEANVYLNSKG
On to B5, for which the IC50 in the assay with H-2 I-A^b (mouse) was 172 nM.

B6: ApoB_(978–993)-related peptide, position 977, 16 residues (peptide)
peptide: TTGAYSNASSTESASY
Regarding B6, the IC50 with H-2 I-A^b (mouse) is 17 nM.

B7: ApoB_(3501–3516)-related peptide, position 3489, 16 residues (peptide)
peptide: SFTKGNIKSSFLSQEY
The molecule B7 returned an IC50 with H-2 I-A^b (mouse) of 1170 nM.

B8: ApoB_(3501–3516)-related peptide, position 3497, 16 residues (peptide)
peptide: SSFLSQEYSGSVANEA
B8 had an IC50 with H-2 I-A^b (mouse) of 6.8 nM.

B9: mouse ApoB-100 peptide 4505–4520 (peptide)
peptide: NNYALFLSPRAQQAS
In the assay with H-2 I-A^b (mouse), B9 returned an IC50 of 1300 nM.
